Toxic doses and inconclusive results are not listed.

For this experiment, the system named is CD2F1 mice, L1210 leukemia ip, survival T/C. As to the kind of experiment: NCI In Vivo Anticancer Drug Screen. Data for tumor model L1210 Leukemia (intraperitoneal) in CD2F1 (CDF1) mice. The following applies: higher = longer survival. The method, then: The antitumor activity of compounds was measured in mice bearing transplantable tumors. Survival or tumor size were measured and the results are expressed as the measurement made in the treated group (T) divided by the measurement made in the vehicle treated control group (C). The tumor model used in this assay is L1210 Leukemia (intraperitoneal) in CD2F1 (CDF1) mice

Where [1] appears, read: endpoint: mean survival time, dose: 100.0 mg/kg/injection, schedule: Q01DX001 (ip), vehicle: saline.
[2] abbreviates: endpoint: mean survival time, dose: 200.0 mg/kg/injection, schedule: Q01DX001 (ip), vehicle: saline.
[3] abbreviates: endpoint: mean survival time, dose: 400.0 mg/kg/injection, schedule: Q01DX001 (ip), vehicle: saline.
Setting [4] is: endpoint: mean survival time, dose: 50.0 mg/kg/injection, schedule: Q04DX003 (ip), vehicle: Klucel (hydroxypropylcellulose) (HPC).
The mark [5] stands for this setting: endpoint: mean survival time, dose: 100.0 mg/kg/injection, schedule: Q01DX009 (ip), vehicle: saline with Tween-80.
The mark [6] stands for this setting: endpoint: mean survival time, dose: 200.0 mg/kg/injection, schedule: Q01DX009 (ip), vehicle: saline with Tween-80.
The mark [7] stands for this setting: endpoint: mean survival time, dose: 400.0 mg/kg/injection, schedule: Q01DX009 (ip), vehicle: saline with Tween-80.
The mark [8] stands for this setting: endpoint: mean survival time, dose: 100.0 mg/kg/injection, schedule: Q04DX003 (ip), vehicle: saline with Tween-80.
Where [9] appears, read: endpoint: mean survival time, dose: 100.0 mg/kg/injection, schedule: Q01DX001 (ip), vehicle: saline with Tween-80.
Setting [10] is: endpoint: mean survival time, dose: 100.0 mg/kg/injection, schedule: Q04DX003 (ip), vehicle: saline.
The mark [11] stands for this setting: endpoint: mean survival time, dose: 12.5 mg/kg/injection, schedule: Q01DX009 (ip), vehicle: saline with Tween-80.
The mark [12] stands for this setting: endpoint: mean survival time, dose: 25.0 mg/kg/injection, schedule: Q01DX009 (ip), vehicle: saline with Tween-80.

Take `CC(=O)Nc1ncc2ccccc2c1-c1ccc(NC(=O)CCN(CCCl)CCCl)cc1`: the T/C (endpoint: mean survival time, dose: 6.25 mg/kg/injection, schedule: Q04DX003 (ip), vehicle: other) is 101 % of control; the T/C (endpoint: mean survival time, dose: 12.5 mg/kg/injection, schedule: Q04DX003 (ip), vehicle: other) is 111 % of control; the T/C (endpoint: mean survival time, dose: 25.0 mg/kg/injection, schedule: Q04DX003 (ip), vehicle: other) was 112 % of control.
With `CCOP(=S)(N=C=S)OCC`, the T/C was 98 % of control (endpoint: mean survival time, dose: 25.0 mg/kg/injection, schedule: Q04DX002 (ip), vehicle: saline with Tween-80) and 90 % of control (endpoint: mean survival time, dose: 50.0 mg/kg/injection, schedule: Q04DX002 (ip), vehicle: saline with Tween-80).
In the case of `CCOC(=O)/N=C/N(C)C`, the T/C by setting is: under setting [1], 100 % of control; under setting [2], 109 % of control; under setting [3], 103 % of control; (endpoint: median survival time, dose: 25.0 mg/kg/injection, schedule: Q04DX003 (ip), vehicle: saline with Tween-80) 100 % of control; (endpoint: median survival time, dose: 50.0 mg/kg/injection, schedule: Q04DX003 (ip), vehicle: saline with Tween-80) 100 % of control; (endpoint: median survival time, dose: 100.0 mg/kg/injection, schedule: Q04DX003 (ip), vehicle: saline with Tween-80) 100 % of control.
As to `CCCc1ccc(C(C)=O)cc1`, the T/C reads like this: (endpoint: mean survival time, dose: 75.0 mg/kg/injection, schedule: Q04DX002 (ip), vehicle: saline with Tween-80) 112 % of control; (endpoint: mean survival time, dose: 150.0 mg/kg/injection, schedule: Q04DX002 (ip), vehicle: saline with Tween-80) 100 % of control.
On to `CC(=O)C(CN(C)C)C(C)=O`, for which the T/C runs as follows: (endpoint: mean survival time, dose: 75.0 mg/kg/injection, schedule: Q01DX001 (ip), vehicle: other) 106 % of control; (endpoint: mean survival time, dose: 150.0 mg/kg/injection, schedule: Q01DX001 (ip), vehicle: other) 106 % of control.
Turning to `N#CC(C#N)=Cc1cccc2ccccc12`, the T/C was 98 % of control under setting [4]; 103 % of control (endpoint: mean survival time, dose: 100.0 mg/kg/injection, schedule: Q04DX003 (ip), vehicle: Klucel (hydroxypropylcellulose) (HPC)); 101 % of control (endpoint: mean survival time, dose: 200.0 mg/kg/injection, schedule: Q04DX003 (ip), vehicle: Klucel (hydroxypropylcellulose) (HPC)).
Turning to `C=CCOc1ccc(C=O)cc1`, the T/C by setting is: under setting [1], 102 % of control; under setting [2], 102 % of control; under setting [3], 97 % of control.
With `CCO/N=C(\C)C(N)=O`, the T/C runs as follows: under setting [5], 101 % of control; under setting [6], 108 % of control; under setting [7], 95 % of control.
Consider `CN(C)CCNc1cccc2c1C(=O)c1cccc(NCCN(C)C)c1C2=O`, for which the T/C by setting is: (endpoint: mean survival time, dose: 1.88 mg/kg/injection, schedule: Q01DX009 (ip), vehicle: saline) 94 % of control; (endpoint: mean survival time, dose: 3.75 mg/kg/injection, schedule: Q01DX009 (ip), vehicle: saline) 96 % of control; (endpoint: mean survival time, dose: 7.5 mg/kg/injection, schedule: Q01DX009 (ip), vehicle: saline) 104 % of control; (endpoint: mean survival time, dose: 15.0 mg/kg/injection, schedule: Q01DX009 (ip), vehicle: saline) 104 % of control; (endpoint: mean survival time, dose: 30.0 mg/kg/injection, schedule: Q01DX009 (ip), vehicle: saline) 104 % of control.
As for `C=CCNC(=O)c1ccc[n+](CC(=O)Nc2ccccc2)c1`, under setting [8], the T/C is 103 % of control.
As to `c1ccc(CCN2CCCCC2)nc1`, the T/C runs as follows: (endpoint: mean survival time, dose: 3.13 mg/kg/injection, schedule: Q04DX003 (ip), vehicle: saline with Tween-80) 93 % of control; (endpoint: mean survival time, dose: 6.25 mg/kg/injection, schedule: Q04DX003 (ip), vehicle: saline with Tween-80) 93 % of control.
For `O=C1c2ccccc2C(=O)N1OCCCN1C(=O)c2ccccc2S1(=O)=O`, the T/C reads like this: under setting [1], 96 % of control; under setting [2], 100 % of control; under setting [3], 100 % of control.
In the case of `CCOC(=O)Cc1cnc(SC)nc1Nc1ccc(F)cc1`, the T/C by setting is: under setting [9], 90 % of control; (endpoint: mean survival time, dose: 200.0 mg/kg/injection, schedule: Q01DX001 (ip), vehicle: saline with Tween-80) 95 % of control.
Take `CN(Cc1ccccc1)N=Nc1ccc(C#N)cc1`: the T/C under setting [5] is 104 % of control, the T/C under setting [6] is 112 % of control and the T/C under setting [7] was 112 % of control.
As to `O=C(C[n+]1cccc(C(=O)NCc2ccccc2)c1)NCc1ccccc1`, the T/C is, setting by setting: (endpoint: mean survival time, dose: 25.0 mg/kg/injection, schedule: Q04DX003 (ip), vehicle: saline) 103 % of control; (endpoint: mean survival time, dose: 50.0 mg/kg/injection, schedule: Q04DX003 (ip), vehicle: saline) 101 % of control; under setting [10], 98 % of control.
Regarding `CN1C(=O)[N+]2(CCCCC2)N=C1[O-]`, the T/C under setting [5] was 96 % of control; the T/C under setting [10] was 91 % of control; the T/C under setting [6] is 102 % of control; the T/C (endpoint: mean survival time, dose: 200.0 mg/kg/injection, schedule: Q04DX003 (ip), vehicle: saline) is 97 % of control; the T/C under setting [7] is 106 % of control; the T/C (endpoint: mean survival time, dose: 400.0 mg/kg/injection, schedule: Q04DX003 (ip), vehicle: saline) was 95 % of control.
On to `CC1(C)CC2(OC2c2ccccc2)C(=O)c2ccccc21` (stereo unspecified), for which the T/C is, setting by setting: (endpoint: mean survival time, dose: 12.5 mg/kg/injection, schedule: Q01DX009 (ip), vehicle: Klucel (hydroxypropylcellulose) (HPC)) 96 % of control; (endpoint: mean survival time, dose: 25.0 mg/kg/injection, schedule: Q01DX009 (ip), vehicle: Klucel (hydroxypropylcellulose) (HPC)) 92 % of control; (endpoint: mean survival time, dose: 50.0 mg/kg/injection, schedule: Q01DX009 (ip), vehicle: Klucel (hydroxypropylcellulose) (HPC)) 87 % of control; (endpoint: mean survival time, dose: 100.0 mg/kg/injection, schedule: Q01DX009 (ip), vehicle: Klucel (hydroxypropylcellulose) (HPC)) 96 % of control; (endpoint: mean survival time, dose: 200.0 mg/kg/injection, schedule: Q01DX009 (ip), vehicle: Klucel (hydroxypropylcellulose) (HPC)) 94 % of control; (endpoint: mean survival time, dose: 400.0 mg/kg/injection, schedule: Q01DX009 (ip), vehicle: Klucel (hydroxypropylcellulose) (HPC)) 94 % of control.
Turning to `C1=CC2C3c4ccccc4C(C2C1)[n+]1ccccc13` (stereo unspecified), the T/C runs as follows: (endpoint: mean survival time, dose: 12.5 mg/kg/injection, schedule: Q04DX003 (ip), vehicle: Klucel (hydroxypropylcellulose) (HPC)) 95 % of control; (endpoint: mean survival time, dose: 25.0 mg/kg/injection, schedule: Q04DX003 (ip), vehicle: Klucel (hydroxypropylcellulose) (HPC)) 97 % of control; under setting [4], 93 % of control.
`NC(=O)C(c1cccs1)c1cccs1`: the T/C was 93 % of control (endpoint: mean survival time, dose: 100.0 mg/kg/injection, schedule: Q04DX002 (ip), vehicle: saline with Tween-80); 87 % of control (endpoint: mean survival time, dose: 200.0 mg/kg/injection, schedule: Q04DX002 (ip), vehicle: saline with Tween-80); 90 % of control (endpoint: mean survival time, dose: 400.0 mg/kg/injection, schedule: Q04DX002 (ip), vehicle: saline with Tween-80).
In the case of `COCC(=O)C(C(C)=O)C(c1ccncc1)C(C(C)=O)C(=O)COC` (stereo unspecified), the T/C was 96 % of control under setting [8]; 98 % of control (endpoint: mean survival time, dose: 200.0 mg/kg/injection, schedule: Q04DX003 (ip), vehicle: saline with Tween-80); 102 % of control (endpoint: mean survival time, dose: 400.0 mg/kg/injection, schedule: Q04DX003 (ip), vehicle: saline with Tween-80).
Consider `Fc1ccc(NCCS)cc1`, for which the T/C runs as follows: (endpoint: mean survival time, dose: 100.0 mg/kg/injection, schedule: Q01DX009 (ip), vehicle: saline sonified) 97 % of control; (endpoint: mean survival time, dose: 200.0 mg/kg/injection, schedule: Q01DX009 (ip), vehicle: saline sonified) 98 % of control; (endpoint: mean survival time, dose: 400.0 mg/kg/injection, schedule: Q01DX009 (ip), vehicle: saline sonified) 103 % of control.
For the molecule `N#CCC(N)=S`, the T/C by setting is: under setting [11], 112 % of control; under setting [12], 106 % of control; (endpoint: mean survival time, dose: 50.0 mg/kg/injection, schedule: Q01DX009 (ip), vehicle: saline with Tween-80) 96 % of control.
On to `c1nc(SSc2ncnc3nc[nH]c23)c2[nH]cnc2n1`, for which the T/C was 186 % of control under setting [11]; 151 % of control under setting [12]; 150 % of control (endpoint: mean survival time, dose: 30.0 mg/kg/injection, schedule: Q01DX001 (ip), vehicle: saline with Tween-80); 157 % of control (endpoint: mean survival time, dose: 66.0 mg/kg/injection, schedule: Q01DX001 (ip), vehicle: saline with Tween-80); 155 % of control under setting [9]; 162 % of control (endpoint: mean survival time, dose: 150.0 mg/kg/injection, schedule: Q01DX001 (ip), vehicle: saline with Tween-80).

The values above are taken from PubChem BioAssay AID256 (DTP/NCI, 2004).
